These results are taken from US7772192B2, “Compositions and methods for treatment of disease with acetylated disaccharides” (The Regents of the University of California, priority 2003, dated 2010).

Where “and” joins values, the source holds several entries; their conditions need not be identical. Equal entries are not always repeated. Where two headings read alike, the source gives them in different places.

The subject of one test is LLC cells. As to the kind of experiment: Experimental metastasis of pretreated LLC cells. The test is classed as in vivo, mice. The conditions noted are these: cells treated 5 days, 3 weeks. As to the method: (A) LLC cells were treated in culture for 4 days with peracetylated GlcNAcβ3Gal-NM or vehicle (DMSO/propylene glycol, v/v 1:1). Single-cell suspensions (2×10^5) were injected in the tail-veins of Es1(e) mice. After 3 weeks, the mice were sacrificed and the number of tumors present on the surface of the lungs was determined by visual inspection.
LLC cells were treated in culture for 5 days with 4-deoxy AcGnG-NM, AcGnG-NM or vehicle (DMSO:propylene glycol) and then a single-cell suspension (2×10^5 cells) was injected in the tail vein of mice. After 3 weeks, the number of tumors present on the surface of the lungs was determined.

In the next test the test system is mixed oligosaccharides. As to the kind of experiment: Oligosaccharide priming, [6-3H]Gal incorporation. Type of test: cell-based. The source says:
(§1) A 4-deoxy modified acetylated disaccharide inhibits sLe^X expression in the absence of oligosaccharide priming.

For the next test, the system named is U937 cells. The experiment in a line: sLe^X expression in U937 cells. Type of test: cell-based.
Source text: as §1

Test [1] deals with β4GalTI. Particulars: cited from earlier work.
In test [2] the test system is Lewis carbohydrate antigens on cells. Particulars: monosaccharide; cited from earlier work.
The test system of test [3] is β4GalTI. As to the kind of experiment: Acceptor specificity and inhibitory action of GlcNAc derivatives (β4galactosyltransferase). Particulars: no reference given. Type of test: biochemical. From the text:
The compounds in Table 1 were selected based on information about β4GalTI, also known as lactose synthase. The enzyme adds galactose to GlcNAc-terminated oligosaccharides on glycoproteins and glycolipids, and will produce lactose in the presence of the cofactor, α-lactalbumin (Berger et al., Biochimie., 85, 261-274, 2003). It is part of a multigene family of β4galactosyltransferases (Hennet, Cell Mol Life. Sci., 59, 1081-1095, 2002; Amado et al., Biochim. Biophys. Acta Gen. Subj., 1473, 35-53, 1999). β4GalTI has been studied kinetically, its substrate specificity has been well documented, and X-ray structures with and without UDP-Gal are available (Gastinel et al., EMBO J., 18, 3546-3557, 1999; Ramakrishnan et al., J. Mol. Biol., 310, 205-218, 2001; Ramakrishnan et al., J. Mol. Biol., 318, 491-502, 2002).
β4GalTI will act on free GlcNAc, GlcNAc-terminated oligosaccharides and GlcNAc glycosides, including GlcNAcβ3Gal-R (Table 2). […] One possibility for the discrepancy may be that the large aromatic aglycone in our compound may facilitate binding to the enzyme. […]

The subject of test [4] is sLe^X on LS180 cell surface. As to the kind of experiment: ELISA with CSLEX-1 mAb of cell-surface sLe^X. Type of test: cell-based, human. The conditions noted are these: LS180 cells.
Test [5] relates to LS180 cells adhering to recombinant E- or P-selectin. As to the kind of experiment: Cell adhesion to immobilized selectins, control values given for E- and P-selectin together. Type of test: cell-based, human. As to the method:
Cell adhesion to immobilized selectins. 96-well plates were coated overnight at 4° C. with recombinant E-selectin (4 μg/ml) or P-selectin (2 μg/ml) (R & D Systems) and blocked with 1% BSA/PBS. LS180 cells were grown for 5 days with various amounts of acetylated disaccharide, harvested, labeled with Calcein AM (5 μM, Molecular Probes) in DMEM/1% FBS, and allowed to settle at room temperature on selectin-coated wells (5×10^4 cells/well). Plates were then stirred at 75 rpm for 30 min (Orbit shaker, Lab-Line Instruments) followed by immersion upside-down in a vessel filled with Hank's buffered saline solution (HBSS, Sigma), which allowed non-adherent cells to fall under gravity. St John et al., J. Immunol Methods, 170: 159-166, 1994. The wells were then washed by aspiration using HBSS. LS180 cells were less adherent to P-selectin, so the immersion step was not necessary prior to washing. […] Fluorescence was measured using a 96-well fluorimeter (CytoFluor II), and the average of triplicate measurements was determined±standard error. Cell viability was judged to be >90% by Trypan blue exclusion at the end of each experiment.
Adhesion to selectins is altered in disaccharide-treated tumor cells. Treatment of LS180 cells with AcGnG-NM was not toxic to the cells up to 100 μM based on growth curves and exclusion of Trypan blue. […]

Test [6] concerns sialyl Lewis X in HL-60, LS180, murine Lewis lung carcinoma, B16 murine melanoma cells. The experiment in a line: Inhibition of sialyl Lewis X formation in cultured cells. The test is classed as cell-based. From the text: The disaccharides can be acylated with, e.g., acetyl, butyryl or benzoyl groups to reduce their hydrophilicity and make them permeable to cell membranes. […] The various disaccharides described above and their acylated or aryl derivatives are logical extensions of the present invention. In addition, analogs of the above compounds in which critical hydroxyl groups are missing or alkylated would bind to glycosyltransfersase and inhibit their activity.

[7] abbreviates: aromatic aglycones, read-out: Ki.

Consider “4′-deoxy-GlcNAcβ3Gal-O-NM [4-deoxy AcGnG-NM]”, for which the “experimental metastasis (tumors on the surface of the lungs)” value in the test with LLC cells was “inhibited experimental metastasis”. For the same compound, the “incorporation of [6-^3H]Gal into mixed oligosaccharides” value with mixed oligosaccharides is reported as “does not”. In addition, the “sLe^X expression” value is reported as “inhibit sLe^X expression” with U937 cells and “inhibits formation of sLe^X” with U937 cells (listed as 4-deoxy-GlcNAcβ3Gal-NM).

By Km is commonly meant the concentration of substrate that gives half-maximal velocity. As usually defined, the Vmax is the rate approached at saturating substrate. For `CO[C@@H]1O[C@H](CO)[C@@H](O)[C@H](OC)[C@H]1NC(C)=O` [3-O-methyl-GlcNAcβ-O-Me], the Km with β4GalTI [1] (acceptor, read-out: Km) is 77000 µM. For the same compound, the Vmax in the test on β4GalTI [1] is 2.4 nmol/min.

In the case of `CO[C@@H]1O[C@H](CO)[C@@H](O)C[C@H]1NC(C)=O` [3-deoxy-GlcNAcβ-OMe], the Km in the test on β4GalTI [1] (acceptor, read-out: Km) was 4200 µM.

One may read the Ki as a measure of affinity in units of concentration, obtained from inhibition or displacement. For the compound `CO[C@@H]1O[C@H](CO)[C@H](O)[C@H](O[C@@H]2O[C@H](CO)[C@@H](O)[C@H](F)[C@H]2NC(C)=O)[C@H]1O` [3′-F-GlcNAcβ3Galβ-OMe], the Ki on β4GalTI [1] (read-out: Ki) is 2700 µM.

With `CC(=O)NC1C(OCc2ccccc2)OC(CO)C(N)C1O` (centres unmarked) [4-NH2-GlcNAcβ-OBn], in the test with β4GalTI [1] (acceptor, unit not given), the Km result is “Inactive”. Besides, the Ki on β4GalTI [1] (read-out: Ki) is 850 µM. Also, the Vmax result in the test on β4GalTI [1] (unit not given) was “Inactive”.

Consider `COC1OC(CO)C(OC)C(O)C1NC(C)=O` (centres unmarked) [4-O-methyl-GlcNAcβ-O-Me], for which the Km result in the test with β4GalTI [1] (acceptor, unit not given) is listed as “Inactive”. At β4GalTI [1] (result in words), the Ki entry was “No inhibition”. Also, in the test with β4GalTI [1] (unit not given), the Vmax result is reported as “Inactive”.

Take `COC1OC(CO)CC(O)C1NC(C)=O` (centres unmarked) [4-deoxy-GlcNAcβ-O-Me]: the Km entry with β4GalTI [1] (acceptor, unit not given) was “Inactive”. Moreover, the “inhibition of the enzyme (β4GalT1)” value in the test on β4GalTI [1] is “did not inhibit”. Further, the Ki result on β4GalTI [1] (result in words) is listed as “No inhibition”. Further, the Vmax result in the test on β4GalTI [1] (unit not given) is reported as “Inactive”.

As for `COC1OC(CO)C(F)C(O)C1NC(C)=O` (centres unmarked) [4-fluoro-GlcNAcβ-OMe], in the test on β4GalTI [1] (acceptor, unit not given), the Km entry was “Inactive”. For the same compound, at β4GalTI [1] (result in words), the Ki entry is given as “No inhibition”. Also, the Vmax entry in the test on β4GalTI [1] (unit not given) is listed as “Inactive”.

In the case of `COC1OC(CO)C(S)C(O)C1NC(C)=O` (centres unmarked) [4-thio-GlcNAcβ-OMe], in the test with β4GalTI [1] (acceptor, unit not given), the Km result is reported as “Inactive”. For the same compound, the Ki result on β4GalTI [1] (result in words) is recorded as “No inhibition”. For the same compound, the Vmax entry in the test on β4GalTI [1] (unit not given) was “Inactive”.

Take `COC1OC(CO)C(O)C(OC2OC(CO)CC(O)C2NC(C)=O)C1O` (centres unmarked) [4′-deoxy-GlcNAcβ3Galβ-OMe]: in the test on β4GalTI [1] (acceptor, unit not given), the Km entry is given as “Inactive”. In the test on β4GalTI [1], the “inhibition of the enzyme (β4GalT1)” value is on record as “did not inhibit”. For the same compound, the inhibition constant (Ki) result at β4GalTI [1] (result in words) is “No inhibition”.

Consider `COC1OC(COC2OC(CO)CC(O)C2NC(C)=O)C(O)C(O)C1O` (centres unmarked) [4′-deoxy-GlcNAcβ6Glcβ-OMe], for which, in the test on β4GalTI [1] (acceptor, unit not given), the Km result is recorded as “Inactive”. Besides, the Ki result on β4GalTI [1] (result in words) is “No inhibition”.

Regarding `COC[C@H]1O[C@@H](OC)[C@H](NC(C)=O)[C@@H](O)[C@@H]1O` [6-O-methyl-GlcNAcβ-O-Me], the Vmax in the test with β4GalTI [1] is given as 1.1 nmol/min.

Take `CO[C@@H]1O[C@H](C)[C@@H](O)[C@H](O)[C@H]1NC(C)=O` [6-deoxy-GlcNAcβ-O-Me]: the Km with β4GalTI [1] (acceptor, read-out: Km) was 500 µM.

Regarding `COC1OC(CO)C(O)C(OC2OC(CS)C(O)C(O)C2NC(C)=O)C1O` (centres unmarked) [6′-thio-GlcNAcβ3Galβ-OMe], the Km result in the test on β4GalTI [1] (acceptor, unit not given) is “Inactive”. Further, in the test on β4GalTI [1], the “inhibition of the enzyme (β4GalT1)” value is listed as “weak inhibitor”. Moreover, at β4GalTI [1] (read-out: Ki), the Ki was 1000 µM. In the test with β4GalTI [1] (unit not given), the Vmax result was “Inactive”.

Consider `CO[C@@H]1O[C@H](CO[C@@H]2O[C@H](CS)[C@@H](O)[C@H](O)[C@H]2NC(C)=O)[C@@H](O)[C@H](O)[C@H]1O` [6′-thio-GlcNAcβ6Glcβ-OMe], for which the Michaelis-Menten constant (Km) in the test with β4GalTI [1] (acceptor, read-out: Km) is 1200 µM.

With `OC[C@@H]1C[C@H](O)[C@@H](O)C(O)O1` (some centres unmarked) [Compound 4-deoxy-Glc, 4-deoxy-Glc], the “inhibition of β4GalT1” value in the test with β4GalTI [1] (in the presence of lactalbumin) is “weak inhibitor”.

Take `CC(=O)N[C@H]1[C@@H](OCc2ccccc2)O[C@H](CO)[C@H](O)[C@@H]1O` [GalNAcα-O-benzyl]: the “concentration needed to achieve a similar level of inhibition” value in test [2] was 1 to 5 mM.

`CC(=O)N[C@H]1C(O)O[C@H](CO)[C@@H](O)[C@@H]1O` (some centres unmarked) [GlcNAc]: the Km with β4GalTI [1] (read-out: Km) was 1000 to 10000 µM.

On to `CC(=O)N[C@H]1[C@H](O[C@H]2[C@@H](O)[C@@H](CO)O[C@@H](OCc3ccc4ccccc4c3)[C@@H]2O)O[C@H](CO)[C@@H](O)[C@@H]1O` [GlcNAcβ3Galβ-O-2-NM], for which the Km in the test on β4GalTI [3] was below 10 µM.

In the case of `CO[C@@H]1O[C@H](CO)[C@H](O)[C@H](O[C@@H]2O[C@H](CO)[C@@H](O)[C@H](O)[C@H]2NC(C)=O)[C@H]1O` [GlcNAcβ3Galβ-OMe], the Km in the test on β4GalTI [1] (acceptor, read-out: Km) is 1100 µM.

With `CC(=O)NC1C(Oc2cccc3ccccc23)OC(CO)C(O)C1O` (centres unmarked) [GlcNAcβ-O-1-naphthol], on β4GalTI [1] (setting [7]), the inhibitory constant (Ki) was 22 µM.

Turning to `CC(=O)N[C@H]1[C@H](Oc2c(Br)ccc3ccccc23)O[C@H](CO)[C@@H](O)[C@@H]1O` [GlcNAcβ-O-2-bromonaphthol], the Ki on β4GalTI [1] (setting [7]) is 7.6 µM.

In the case of `CC(=O)N[C@H]1[C@H](Oc2c(C)ccc3ccccc23)O[C@H](CO)[C@@H](O)[C@@H]1O` [GlcNAcβ-O-2-methylnaphthol], the Ki at β4GalTI [1] (setting [7]) is 3.5 µM.

For the compound `CC(=O)NC1C(Oc2ccc3ccccc3c2)OC(CO)C(O)C1O` (centres unmarked) [GlcNAcβ-O-2-naphthol], the Ki on β4GalTI [1] (setting [7]) is 9.5 µM.

As for `CO[C@@H]1O[C@H](CO)[C@@H](O)[C@H](O)[C@H]1NC(C)=O` [GlcNAcβ-O-Me], the Km in the test with β4GalTI [1] (acceptor, read-out: Km) is 1300 µM and 1800 µM and 1500 µM.

Turning to “Galβ1,3Galβ-O-naphthalenemethanol [AcGG-NM]”, in test [4], the “expression of sLe^X on the cell surface” value is reported as “no effect”. In [5] (E- and P-selectin, disaccharide at 50 μM), the “extent of adhesion normalized to cells not treated with disaccharide” value is recorded as 0.95-1.1. Moreover, the “adhesion to either selectin conjugate” value in test [5] (LS180 cells) is recorded as “no effect”.

Regarding “Galβ1,4GlcNAcβ-O-naphthalenemethanol [AcGGn-NM]”, the “formation of sialyl Lewis X” value in test [6] is listed as “inhibit the formation of sialyl Lewis X”.
